Key:
[1] = Photostabilization of avobenzone in ethanol test solution under sun simulator
Experimental: A comparative photostabilization study was conducted comparing the photostabilization efficacy of the compound of Example 1, HSS, and the compound of Example 3 (Compound 3) with Octocrylene and Oxynex® ST in the stabilization of avobenzone. Samples for evaluation were prepared as follows:
Solutions in ethanol are prepared at respective concentrations of photosensitive materials and photostabilizer (typically 1:1 to 1:5 weight ratio). A base test solution of 3% Avobenzone+5% Octyl salicylate +10% Homoslate in Ethanol (the “Test Solution”) was made. Seven additional solutions were prepared by adding 2% Synoxyl™ HSS, 4% Synoxyl™ HSS, 4% Compound 3, 2% Octocrylene, 4% Octocrylene, 2% Oxynex® ST, and 2% dehydrozingerone methyl ether, respectively, to seven aliquots of the Test Solution.
Samples of each solution were prepared as ultrathin films between two quartz plates so as to obtain a minimum of 90% light transmission over the entire spectrum range of non absorbing chromophores. For example, ingredients which absorb only in the UV range were tested in formulation to obtain a minimum of 90% light transmission over the visible range. Each sample was then irradiated under sun simulator (754 W/m^2, 2 MED/h, UV dose from 20 to 100 Joules/cm^2) for various durations and light absorption spectra recorded for each sample at given times. The maximal absorption band λmax of each solution was determined before and after irradiation. The amount of the photosensitive materials remaining in solution after irradiation was calculated as the ratio of their two maximal absorptions.

[2] = solar simulator, total energy 100 mJ/cm^2; cited from earlier work

For COc1ccc(C=C(C(C)=O)C(C)=O)cc1 [Compound 3, 3-(4-methoxybenzylidene)-2,4-pentanedione], the melting point was 82 to 84 °C, the “% remaining” value ([1]; 4% stabilizer in Test Solution (3% Avobenzone), UV dose 0 Joules/cm^2) was 100% and the “% remaining” value ([1]; 4% stabilizer in Test Solution (3% Avobenzone), UV dose 20 Joules/cm^2) was 96%. For the same compound, the “% remaining” value ([1]; 4% stabilizer in Test Solution (3% Avobenzone), UV dose 40 Joules/cm^2) was 90%, the “% remaining” value ([1]; 4% stabilizer in Test Solution (3% Avobenzone), UV dose 60 Joules/cm^2) was 80% and the “% remaining” value ([1]; 4% stabilizer in Test Solution (3% Avobenzone), UV dose 80 Joules/cm^2) was 73%. The “% remaining” value ([1]; 4% stabilizer in Test Solution (3% Avobenzone), UV dose 100 Joules/cm^2) was 68%.
For COc1ccc(/C=C/C(C)=O)cc1OC [Dehydrozingerone methyl ether, Dehydrozingerone methylether], the “% remaining” value ([1]; 2% stabilizer in Test Solution (3% Avobenzone), UV dose 0 Joules/cm^2) was 100%, the “% remaining” value ([1]; 2% stabilizer in Test Solution (3% Avobenzone), UV dose 20 Joules/cm^2) was 59% and the “% remaining” value ([1]; 2% stabilizer in Test Solution (3% Avobenzone), UV dose 40 Joules/cm^2) was 26%. The “stabilization of photosensitive compounds” value ([1]; summary statement) was “fails to stabilize photosensitive compounds”.
In the case of Cc1ccc(C(C)C)cc2c(C)ccc1-2 [Guaiazulene], the “lost due to degradation” value [2] is listed as ~90%.
